For one assay, the system named is NF-κB. The assay is described as follows: Inhibition of NF-κB activation. The following applies: compared with (±)-DHM2EQ.
Assay [1] has as its system RAW264.7 cells. The assay is described as follows: NO production in activated RAW264.7 cells (Griess reagent, OD570). It counts as cell-based. On the procedure: It is known that, in macrophages, the expression of iNOS is induced by lipopolysaccharides such as LPS and interferons such as IFN-γ, thereby triggering NO production. Thus, by using macrophage-derived cultured cells, the influence of (±)-DHM2EQ on NO production when LPS and IFN-γ were used in combination with (±)-DHM2EQ was examined.
(§1) Since NO produced is released out of cells and mixed in the medium, being present as NO2^−, the amount of NO produced was determined by developing a color reaction and measuring optical density (OD570) after the addition of the Griess reagent to the a medium. Then, each amount of NO produced when (±)-DHM2EQ was applied at different concentrations was compared as a relative value by taking OD570 of the sample […] the addition of macrophage activating factor as 100%.
(§2) A cell suspension prepared at 4×10^5 cells/ml was plated at 200 μl/well in 96-well plates (Costar:Acton, Mass.). (±)-DHM2EQ was diluted at 0, 1, 3, and 10 μg/ml and added to each well of the plates. After 2-hour incubation under the condition of 37° C. in 5% CO2, IFN-γ (final concentration: 100 ng/ml) and LPS (final concentration: 10 μg/ml) were added to the wells and then the plates were incubated for 18 hours. 100 μl of the Griess reagent was added to each of the cell suspensions and allowed to react for 10 min, and then OD570 was measured with a microplate reader.

Assay [2] has as its system RAW264.7 cells. The assay is described as follows: Intracellular NO in RAW264.7 cells observed in situ with DAF-2DA fluorescence. It counts as cell-based. The following applies: IFN-γ + LPS, 10 μg/ml compound. On the procedure:
Further, to observe suppression of NO production in situ in macrophage-derived RAW264.7 cells by (±)-DHM2EQ when LPS and IFN-γ are used in combination with (±)-DHM2EQ, intracellular NO was directly observed using diaminofluorescein-2 diacetate (DAF-2DA; Daiich Pure Chemicals).
500 μl of RAW264.7 cells were first plated in each chamber on chamber slides at a concentration of 6×10^5 cells/ml. After 1 day incubation under the condition of 37° C. in 5% CO2, (±)-DHM2EQ was added, followed by 2-hour incubation. Subsequently, IFN-γ (final concentration: 100 ng/ml) and LPS (final concentration: 10 μg/ml) were added, followed by 6-hour incubation. Then, the medium was changed to DAF-2DA-containing phosphate buffered saline (PBS; 8 g/l NaCl, 0.2 g/l KCl, 0.916 g/l Na2HPO4, 0.2 g/l KH2PO4), followed by further 2-hour incubation. The fluorescence images were then observed with a fluorescence microscope.

Assay [3] has as its system RAW264.7 cells. The assay is described as follows: iNOS expression in LPS-activated RAW264.7 cells (Western blot). It counts as cell-based. The note with it: LPS 10 μg/ml, 24 h, 0, 1, 3, 10 μg/ml compound. On the procedure: Since NO is produced by the enzyme iNOS within cells, it was examined whether this suppression results from suppression of iNOS expression.
Cells were plated in 100 mm dishes at 4×10^5 cells/ml, incubated overnight, and then (±)-DHM2EQ was added at final concentrations of 0, 1, 3, and 10 μg/ml. After 2 hours, LPS (final concentration: 10 μg/ml) was added to stimulate for 24 hours. Then, cell suspension was collected and centrifuged, and cells were lysed in 65 μl of prepared lysis buffer (50 mM Tris-HCl: pH 8.0, 1% NP-40, 20 mM EDTA, 100 mM NaVO4, 0.1 mg/ml leupeptin, 1 mM PMSF). Then, the supernatant of the cell lysate was isolated, each protein concentration was measured, and the predetermined mass of protein was boiled as a sample. This sample was subjected to SDS-PAGE and the proteins on the gel were transferred to a nitrocellulose membrane, which was then reacted with anti-iNOS antibody (Santa Cruz) followed by sheep anti-rabbit IgG antibody (Amersham). Subsequently, color was developed by the ECL detection system, and the signal was detected by exposing the membrane to the film (Fuji Photo Film)
For orientation: Immunoblotting shows a protein as a band on a membrane.

The subject of assay [4] is RAW264.7 cells. The experiment in a line: IL-1β secretion from LPS-activated RAW264.7 cells (ELISA). The note with it: LPS 10 μg/ml, 24 h, 0, 1, 3, 10 μg/ml compound. It counts as cell-based, mouse. On the procedure:
Next, the effect of (±)-DHM2EQ on IL-1β secretion, which is another marker of macrophage activation in macrophage-derived RAW264.7 cells activated by […], was examined.
500 μl of RAW264.7 cells were plated in each well at a concentration of 4×10^5 cells/ml, and the plates were incubated at 37° C. for 1-day. (±)-DHM2EQ (final concentrations: 0, 1, 3, and 10 μg/ml) was then added followed by 2-hour incubation and then LPS (final concentration: 10 μg/ml) was added followed by 24-hour stimulation. After the stimulation, the cell supernatant was recovered (500 μ/l each), and centrifuged at 15000 rpm for 2 min, and the insoluble fractions were removed; the samples were thus obtained.
The amount of IL-1β secretion was examined using mouse IL-1β ELISA assay kit (R&D Systems; Minneapolis, U.S.). First, 50 μl of Reaction Buffer was added to 96-well microplates, on which mouse IL-1β antibody (polyclonal antibody) had been fixed, and 50 βl of the aforementioned sample were applied to each well of the plates. […] Subsequently, 100 μl of stopping solution was added and the OD value at 450 nm was measured using a microplate reader. Then, the concentration of IL-1β was determined from the calibration curve constructed using mouseIL-1β standard supplied with mouse IL-1β ELISA assay kit.
For orientation: ELISA stands for enzyme-linked immunosorbent assay.

The subject of assay [5] is RAW264.7 cells. The experiment in a line: IL-6 secretion from LPS-activated RAW264.7 cells (ELISA). It counts as cell-based. The note with it: LPS 10 μg/ml, 24 h.
Assay [6] has as its system RAW264.7 cells. The assay is described as follows: TNF-α secretion from IL-1β-activated RAW264.7 cells. The note with it: IL-1β 10 ng/ml, 6 h. It counts as cell-based.
The subject of another assay is J774.1 cells. The experiment in a line: NO production in activated J774.1 cells (Griess reagent). It counts as cell-based. The following applies: IFN-γ + LPS. On the procedure: as §1, §2
The effect of (±)-DHM2EQ on NO production in another activated macrophage-derived cell line, J774.1, was examined in the same manner as described in Example 1.

Assay [7] concerns RAW264.7 cells. The experiment in a line: COX-2 production in LPS-activated RAW264.7 cells (Western blot). It counts as cell-based. The note with it: LPS 10 μg/ml, 24 h, 1, 3, 10 μg/ml compound. The source says: It is known that macrophages activated by inflammatory stimuli and growth factor produces COX-2, a prostaglandin synthase, which is responsible for various pathological conditions such as inflammation, cancer cell proliferation, cancer development, angiogenesis, tumor metastasis, etc. Further, it has recently been known that, in systemic lupus erythematosus (SLE), which is an autoimmune disease, self-reactive T cells acquire resistance to apoptosis with increasing COX-2 expression (Nature Medicine 10, 411-415, 2004) Thus, on the assumption that use of (±)-DHM2EQ might make it possible to inhibit macrophage activation and thereby to suppress COX-2 production, the effect of (±)-DHM2EQ on COX-2 production in RAW264.7 cells derived from macrophages activated by LPS stimulation was examined.
RAW264.7 cells were plated at 4×10^6 cells/dish in a 100 mm dish (Coaster:Acton, Mass.) containing DMEM medium, and the plates were incubated overnight at 37° C. under 5% CO2. Then, (±)-DHM2EQ (final concentrations: 1, 3, and 10 μg/ml) was added followed by 2-hour incubation and then LPS (final concentration: 10 μg/ml) was added followed by 24-hour stimulation. The cells were then recovered and lysed with 65 μl of lysis buffer (50 mM Tris-HCl: pH 8.0, 1% NP-40, 20 mM EDTA, 100 mM NaVO4, 0.1 mg/ml leupeptin, 1 mM PMSF) and SDS-PAGE was performed. […]

Assay [8] deals with RAW264.7 cells. The experiment in a line: Phagocytosis of fluorescent-labeled E. coli by activated RAW264.7 cells. It counts as cell-based. From the text: Macrophages contribute to host defense mechanism by, when infected with bacteria, engulfing the whole or part of the bacteria as foreign matter and digesting the foreign matter in the lysosome containing hydrolytic enzymes, etc. This penomenon of engulfing foreign matter, referred to as phagocytosis, is marker of macrophage activation. Thus, by using as a marker phagocytotic ability of RAW264.7 cells derived from macrophages activated by the LPS or IL-1β stimulation, the effect of (±)-DHM2EQ on macrophage activation was examined.
500 μl of RAW264.7 cells were plated in each chamber at a concentration of 4×10^5 cells/ml in chamber slides. After an overnight incubation, (±)-DHM2EQ was added, and the slides were incubated for 2 hours. LPS (final concentration: 1 μg/ml) was then added, and the slides were incubated for 10 mins and then washed with 750 μl of PBS two times. Subsequently, PBS was removed and 250 μl of the solution containing fluorescent-labeled E. coli (Molecular probes, U.S.) (i.e. a solution of fluorescent-labeled E. coli diluted with […] of PBS) was added to each chamber, and the slides were incubated for 2 hours at room temperature the cells were then washed twice in 750 μl of PBS and the phagocytic ability of macrophage-derived RAW264.7 cells were observed under a fluorescence microscope and a phase-contrast microscope. In addition, in the activation using IL-1β, the phagocytic ability of macrophage-derived RAW264.7 cells was examined in the same manner as above, except that IL-1β (final concentration: 10 ng/ml) was added in place of LPS.

As for `O=C(NC1=CC(=O)[C@H]2O[C@H]2[C@H]1O)c1ccccc1O` [(−)-DHM2EQ], in the assay with NF-κB, the “inhibitory effect on NF-κB activation” value was “stronger inhibitory effect on NF-κB activation than (±)-DHM2EQ”.
`O=C(NC1=CC(=O)C2OC2C1O)c1ccccc1O` (racemic) [(±)-DHM2EQ, 5,6-epoxy-4-hydroxy-3-salicyloylamino-2-cyclohexenone]: the NO production result was “suppressed depending on the concentration of (±)-DHM2EQ added” with RAW264.7 cells [1] (IFN-γ 100 ng/ml + LPS 10 μg/ml, 18 h, 0, 1, 3, 10 μg/ml compound); “suppressed almost to the control level” in the assay on RAW264.7 cells [1] (IFN-γ + LPS, 10 μg/ml compound); “suppressed to the control level” in the assay with J774.1 cells (10 μg/ml compound); “suppressed depending on (±)-DHM2EQ treatment concentration” with J774.1 cells (concentration series). In the assay on RAW264.7 cells [2], the “intracellular NO production (DAF-2DA fluorescence)” value was “suppressed to the control level”. For the same molecule, the iNOS expression result in the assay on RAW264.7 cells [3] was “suppresses the expression of iNOS depending on its treatment concentration”. Moreover, the IL-1β secretion entry in the assay with RAW264.7 cells [4] is “suppresses the expression of IL-1β depending on its treatment concentration”. Also, the IL-6 production entry in the assay on RAW264.7 cells [5] is on record as “suppresses IL-6 production depending on its treatment concentration”. Also, the TNF-α production entry with RAW264.7 cells [6] was “suppresses TNF-α production depending on its treatment concentration”. The COX-2 production result in the assay with RAW264.7 cells [7] is on record as “suppresses COX-2 production depending on its treatment concentration”. For the same molecule, the “phagocytosis of E. coli” value in the assay on RAW264.7 cells [8] (IL-1β stimulation, pretreatment with 10 μg/ml compound) is recorded as “suppressed almost to the same level as the control”; with RAW264.7 cells [8] (LPS stimulation, pretreatment with 10 μg/ml compound), “suppressed almost to the same level as the control”; in the assay with RAW264.7 cells [8] (LPS stimulation, pretreatment, concentration series), “suppressed depending on its treatment concentration”.
